In article PMC12670405, “Second-Generation AURKA-Targeting PROTACs: Structural Optimization toward in Vivo Degradation in Neuroblastoma” (Journal of Medicinal Chemistry, 2025):

How the values were obtained:
Assay in all cases: KINOMEscan scanMAX
Assay type in all cases: binding
Details in all cases: read-out: Percent Control
[1] = target: T1, ABL1(F317L)-phosphorylated (Homo sapiens, UniProt P00519, F317L)
T1 construct: purchased Eurofins Discovery (DiscoverX KINOMEscan scanMAX)
Experimental: (§1) The kinome-wide binding assay was performed by Eurofins Discovery using the scanMAX screening platform. More information can be found on the Eurofins Discovery Web site.

[2] = target: T2, ABL1(T315I)-nonphosphorylated (Homo sapiens, UniProt P00519, T315I)
T2 construct: purchased Eurofins Discovery (DiscoverX KINOMEscan scanMAX)
Experimental: as §1

AKT2 = target: T3, AKT2 (Homo sapiens, UniProt P31751)
T3 construct: purchased Eurofins Discovery (DiscoverX KINOMEscan scanMAX)
Experimental: as §1

AMPK-alpha1 = target: T4, AMPK-alpha1 (Homo sapiens, UniProt Q13131)
T4 construct: purchased Eurofins Discovery (DiscoverX KINOMEscan scanMAX)
Experimental: as §1

CAMK2B = target: T5, CAMK2B (Homo sapiens, UniProt Q13554)
T5 construct: purchased Eurofins Discovery (DiscoverX KINOMEscan scanMAX)
T5 sequence (Q13554 whole entry): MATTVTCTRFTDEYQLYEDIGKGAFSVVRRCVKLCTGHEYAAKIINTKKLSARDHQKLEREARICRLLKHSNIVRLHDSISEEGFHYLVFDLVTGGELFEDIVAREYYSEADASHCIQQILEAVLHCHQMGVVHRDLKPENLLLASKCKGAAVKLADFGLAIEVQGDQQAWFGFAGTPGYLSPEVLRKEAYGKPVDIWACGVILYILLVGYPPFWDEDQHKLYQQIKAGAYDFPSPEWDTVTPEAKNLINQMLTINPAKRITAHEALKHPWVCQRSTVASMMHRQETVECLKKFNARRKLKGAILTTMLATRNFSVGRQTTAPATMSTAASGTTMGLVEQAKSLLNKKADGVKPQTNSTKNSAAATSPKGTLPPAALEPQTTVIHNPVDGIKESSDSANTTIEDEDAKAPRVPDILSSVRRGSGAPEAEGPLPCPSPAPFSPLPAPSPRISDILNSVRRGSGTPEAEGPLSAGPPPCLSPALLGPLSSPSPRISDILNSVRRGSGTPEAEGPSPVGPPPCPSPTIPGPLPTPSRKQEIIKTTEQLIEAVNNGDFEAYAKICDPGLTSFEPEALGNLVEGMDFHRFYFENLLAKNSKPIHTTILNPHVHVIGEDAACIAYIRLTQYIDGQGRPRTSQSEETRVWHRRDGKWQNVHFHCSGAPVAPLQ
Experimental: as §1

CAMK2G = target: T6, CAMK2G (Homo sapiens, UniProt Q13555)
T6 construct: purchased Eurofins Discovery (DiscoverX KINOMEscan scanMAX)
Experimental: as §1

CLK4 = target: T7, CLK4 (Homo sapiens, UniProt Q9HAZ1)
T7 construct: purchased Eurofins Discovery (DiscoverX KINOMEscan scanMAX)
T7 sequence (Q9HAZ1 whole entry): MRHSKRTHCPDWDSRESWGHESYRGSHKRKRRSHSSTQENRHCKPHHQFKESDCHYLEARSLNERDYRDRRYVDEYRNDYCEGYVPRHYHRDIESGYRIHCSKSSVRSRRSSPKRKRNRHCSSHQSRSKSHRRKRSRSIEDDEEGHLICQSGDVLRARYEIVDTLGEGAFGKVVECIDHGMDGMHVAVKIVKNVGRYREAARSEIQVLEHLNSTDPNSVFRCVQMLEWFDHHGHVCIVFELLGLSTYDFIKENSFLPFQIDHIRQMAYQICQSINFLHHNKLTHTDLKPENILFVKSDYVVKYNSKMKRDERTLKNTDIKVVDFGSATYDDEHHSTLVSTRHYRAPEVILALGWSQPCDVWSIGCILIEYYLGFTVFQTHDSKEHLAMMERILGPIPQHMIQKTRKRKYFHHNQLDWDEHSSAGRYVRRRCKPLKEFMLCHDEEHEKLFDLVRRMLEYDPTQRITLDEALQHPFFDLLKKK
Experimental: as §1

CSNK2A2 = target: T8, CSNK2A2 (Homo sapiens, UniProt P19784)
T8 construct: purchased Eurofins Discovery (DiscoverX KINOMEscan scanMAX)
Experimental: as §1

DCAMKL1 = target: T9, DCAMKL1 (Homo sapiens, UniProt O15075)
T9 construct: purchased Eurofins Discovery (DiscoverX KINOMEscan scanMAX)
Experimental: as §1

DDR1 = target: T10, DDR1 (Homo sapiens, UniProt Q08345)
T10 construct: purchased Eurofins Discovery (DiscoverX KINOMEscan scanMAX)
T10 sequence (Q08345 19-913): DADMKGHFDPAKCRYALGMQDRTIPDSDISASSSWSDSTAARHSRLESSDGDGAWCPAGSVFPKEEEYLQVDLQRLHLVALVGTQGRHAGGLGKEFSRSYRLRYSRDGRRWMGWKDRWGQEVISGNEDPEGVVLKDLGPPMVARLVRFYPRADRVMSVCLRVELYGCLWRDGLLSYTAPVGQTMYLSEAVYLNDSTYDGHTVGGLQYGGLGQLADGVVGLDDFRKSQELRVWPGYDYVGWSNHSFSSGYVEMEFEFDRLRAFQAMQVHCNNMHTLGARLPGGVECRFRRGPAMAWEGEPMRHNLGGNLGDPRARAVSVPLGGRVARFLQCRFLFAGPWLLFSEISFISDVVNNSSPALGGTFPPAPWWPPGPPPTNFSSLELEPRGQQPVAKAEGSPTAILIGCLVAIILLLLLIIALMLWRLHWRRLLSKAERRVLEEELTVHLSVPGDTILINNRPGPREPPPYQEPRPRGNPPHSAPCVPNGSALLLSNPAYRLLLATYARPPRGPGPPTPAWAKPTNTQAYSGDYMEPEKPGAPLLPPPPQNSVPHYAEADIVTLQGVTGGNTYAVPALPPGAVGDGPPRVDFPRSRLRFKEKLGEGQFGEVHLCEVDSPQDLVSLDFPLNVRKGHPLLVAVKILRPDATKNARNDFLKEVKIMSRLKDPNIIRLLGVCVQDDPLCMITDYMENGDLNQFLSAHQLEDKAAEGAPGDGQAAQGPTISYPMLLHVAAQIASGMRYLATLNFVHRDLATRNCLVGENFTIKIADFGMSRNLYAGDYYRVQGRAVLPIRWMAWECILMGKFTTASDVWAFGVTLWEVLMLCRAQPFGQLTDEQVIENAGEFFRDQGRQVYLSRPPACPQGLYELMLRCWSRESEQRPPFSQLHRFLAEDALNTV
Experimental: as §1

DRAK2 = target: T11, DRAK2 (Homo sapiens, UniProt O94768)
T11 construct: purchased Eurofins Discovery (DiscoverX KINOMEscan scanMAX)
Experimental: as §1

[3] = target: T12, EGFR(L747-S752del, P753S) (Homo sapiens, UniProt P00533, DEL747-752/P753S)
T12 construct: purchased Eurofins Discovery (DiscoverX KINOMEscan scanMAX)
Experimental: as §1

ERBB3 = target: T13, ERBB3 (Homo sapiens, UniProt P21860)
T13 construct: purchased Eurofins Discovery (DiscoverX KINOMEscan scanMAX)
Experimental: as §1

FER = target: T14, FER (Homo sapiens, UniProt P16591)
T14 construct: purchased Eurofins Discovery (DiscoverX KINOMEscan scanMAX)
Experimental: as §1

FGFR3(G697C) = target: T15, FGFR3(G697C) (Homo sapiens, UniProt P22607, G697C)
T15 construct: purchased Eurofins Discovery (DiscoverX KINOMEscan scanMAX)
T15 sequence (P22607 23-806 G697C): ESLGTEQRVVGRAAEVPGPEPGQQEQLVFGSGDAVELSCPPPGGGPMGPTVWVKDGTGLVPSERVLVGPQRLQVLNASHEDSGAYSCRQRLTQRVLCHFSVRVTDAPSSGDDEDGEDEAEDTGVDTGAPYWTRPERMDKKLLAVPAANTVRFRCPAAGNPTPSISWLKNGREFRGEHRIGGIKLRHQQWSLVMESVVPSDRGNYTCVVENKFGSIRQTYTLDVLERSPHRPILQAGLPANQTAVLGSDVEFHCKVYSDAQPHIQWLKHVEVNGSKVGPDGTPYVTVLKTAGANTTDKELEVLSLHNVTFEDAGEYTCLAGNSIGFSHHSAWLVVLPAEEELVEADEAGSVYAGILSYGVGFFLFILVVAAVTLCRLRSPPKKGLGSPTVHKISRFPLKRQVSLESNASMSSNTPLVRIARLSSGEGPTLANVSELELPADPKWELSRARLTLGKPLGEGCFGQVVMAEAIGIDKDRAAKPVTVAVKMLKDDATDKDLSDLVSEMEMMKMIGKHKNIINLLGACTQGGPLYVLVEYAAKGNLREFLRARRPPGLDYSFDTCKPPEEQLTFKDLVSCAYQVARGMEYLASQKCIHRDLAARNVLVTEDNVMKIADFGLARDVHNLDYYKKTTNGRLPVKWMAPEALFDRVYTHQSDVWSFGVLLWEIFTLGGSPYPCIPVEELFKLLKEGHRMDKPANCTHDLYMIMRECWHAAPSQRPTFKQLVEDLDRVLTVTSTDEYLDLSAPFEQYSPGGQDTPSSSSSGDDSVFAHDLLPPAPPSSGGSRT
Experimental: as §1

IKK-beta = target: T16, IKK-beta (Homo sapiens, UniProt O14920)
T16 construct: purchased Eurofins Discovery (DiscoverX KINOMEscan scanMAX)
T16 sequence (O14920 whole entry): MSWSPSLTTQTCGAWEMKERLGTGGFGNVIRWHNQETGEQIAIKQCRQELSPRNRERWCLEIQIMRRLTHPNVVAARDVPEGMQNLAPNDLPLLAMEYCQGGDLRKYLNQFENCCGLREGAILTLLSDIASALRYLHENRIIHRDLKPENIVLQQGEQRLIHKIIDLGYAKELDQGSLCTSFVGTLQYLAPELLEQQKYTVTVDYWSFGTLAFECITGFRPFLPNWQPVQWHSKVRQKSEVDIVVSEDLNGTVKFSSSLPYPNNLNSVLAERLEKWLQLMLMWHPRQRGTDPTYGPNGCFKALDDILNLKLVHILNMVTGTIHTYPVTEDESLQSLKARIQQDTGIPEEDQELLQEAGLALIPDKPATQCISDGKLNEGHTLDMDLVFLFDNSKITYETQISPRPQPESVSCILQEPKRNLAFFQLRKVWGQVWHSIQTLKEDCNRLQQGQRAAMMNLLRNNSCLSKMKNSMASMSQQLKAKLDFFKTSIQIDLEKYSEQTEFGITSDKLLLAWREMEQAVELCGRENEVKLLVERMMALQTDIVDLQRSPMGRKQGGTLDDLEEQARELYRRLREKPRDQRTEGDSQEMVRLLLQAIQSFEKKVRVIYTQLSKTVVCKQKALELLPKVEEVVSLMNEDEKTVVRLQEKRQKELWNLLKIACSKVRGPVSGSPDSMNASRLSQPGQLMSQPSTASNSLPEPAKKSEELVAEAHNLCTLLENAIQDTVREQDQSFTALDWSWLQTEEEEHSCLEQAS
Experimental: as §1

IRAK3 = target: T17, IRAK3 (Homo sapiens, UniProt Q9Y616)
T17 construct: purchased Eurofins Discovery (DiscoverX KINOMEscan scanMAX)
T17 sequence (Q9Y616 whole entry): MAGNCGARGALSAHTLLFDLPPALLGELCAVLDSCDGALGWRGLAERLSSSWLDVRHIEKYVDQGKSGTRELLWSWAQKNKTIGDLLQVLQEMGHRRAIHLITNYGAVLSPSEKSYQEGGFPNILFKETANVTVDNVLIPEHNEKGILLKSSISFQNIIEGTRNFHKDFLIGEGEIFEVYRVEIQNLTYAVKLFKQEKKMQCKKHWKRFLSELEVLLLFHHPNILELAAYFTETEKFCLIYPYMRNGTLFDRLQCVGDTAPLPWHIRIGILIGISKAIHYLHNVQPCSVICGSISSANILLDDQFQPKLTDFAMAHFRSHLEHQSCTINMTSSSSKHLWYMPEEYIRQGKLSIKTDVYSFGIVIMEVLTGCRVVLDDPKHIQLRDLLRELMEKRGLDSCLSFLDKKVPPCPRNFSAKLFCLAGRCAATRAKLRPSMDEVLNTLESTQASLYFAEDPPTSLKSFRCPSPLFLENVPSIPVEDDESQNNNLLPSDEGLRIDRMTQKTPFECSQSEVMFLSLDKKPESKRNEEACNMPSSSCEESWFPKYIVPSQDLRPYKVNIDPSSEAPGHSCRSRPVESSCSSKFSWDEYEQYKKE
Experimental: as §1

KIT(D816V) = target: T18, KIT(D816V) (Homo sapiens, UniProt P10721, D816V)
T18 construct: purchased Eurofins Discovery (DiscoverX KINOMEscan scanMAX)
Experimental: as §1

KIT(L576P) = target: T19, KIT(L576P) (Homo sapiens, UniProt P10721, L576P)
T19 construct: purchased Eurofins Discovery (DiscoverX KINOMEscan scanMAX)
Experimental: as §1

MLK1 = target: T20, MLK1 (Homo sapiens, UniProt P80192)
T20 construct: purchased Eurofins Discovery (DiscoverX KINOMEscan scanMAX)
Experimental: as §1

MST3 = target: T21, MST3 (Homo sapiens, UniProt Q9Y6E0)
T21 construct: purchased Eurofins Discovery (DiscoverX KINOMEscan scanMAX)
Experimental: as §1

MTOR = target: T22, MTOR (Homo sapiens, UniProt P42345)
T22 construct: purchased Eurofins Discovery (DiscoverX KINOMEscan scanMAX)
Experimental: as §1

NEK3 = target: T23, NEK3 (Homo sapiens, UniProt P51956)
T23 construct: purchased Eurofins Discovery (DiscoverX KINOMEscan scanMAX)
Experimental: as §1

NEK4 = target: T24, NEK4 (Homo sapiens, UniProt P51957)
T24 construct: purchased Eurofins Discovery (DiscoverX KINOMEscan scanMAX)
T24 sequence (P51957 whole entry): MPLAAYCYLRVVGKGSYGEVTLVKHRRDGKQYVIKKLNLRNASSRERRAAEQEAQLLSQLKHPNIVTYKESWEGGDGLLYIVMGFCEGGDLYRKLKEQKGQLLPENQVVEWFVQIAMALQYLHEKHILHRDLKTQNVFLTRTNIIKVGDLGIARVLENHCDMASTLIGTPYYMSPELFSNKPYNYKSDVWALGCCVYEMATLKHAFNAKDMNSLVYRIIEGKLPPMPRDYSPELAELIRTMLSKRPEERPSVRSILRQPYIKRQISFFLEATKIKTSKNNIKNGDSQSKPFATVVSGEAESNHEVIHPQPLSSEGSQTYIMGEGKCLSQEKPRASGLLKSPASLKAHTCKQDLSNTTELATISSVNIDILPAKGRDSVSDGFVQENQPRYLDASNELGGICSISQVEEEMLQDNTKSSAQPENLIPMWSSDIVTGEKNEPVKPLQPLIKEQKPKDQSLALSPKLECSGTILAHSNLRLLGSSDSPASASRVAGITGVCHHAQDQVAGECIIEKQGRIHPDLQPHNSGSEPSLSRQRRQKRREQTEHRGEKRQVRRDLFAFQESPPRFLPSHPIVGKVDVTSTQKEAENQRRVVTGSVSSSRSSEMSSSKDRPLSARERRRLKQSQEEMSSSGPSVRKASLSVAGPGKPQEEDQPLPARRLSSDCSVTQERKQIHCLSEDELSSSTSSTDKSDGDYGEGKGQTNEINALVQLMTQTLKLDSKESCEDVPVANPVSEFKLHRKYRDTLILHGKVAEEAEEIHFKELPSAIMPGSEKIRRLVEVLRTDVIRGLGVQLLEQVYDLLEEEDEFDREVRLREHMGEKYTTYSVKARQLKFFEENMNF
Experimental: as §1

NIK = target: T25, NIK (Homo sapiens, UniProt Q99558)
T25 construct: purchased Eurofins Discovery (DiscoverX KINOMEscan scanMAX)
Experimental: as §1

NLK = target: T26, NLK (Homo sapiens, UniProt Q9UBE8)
T26 construct: purchased Eurofins Discovery (DiscoverX KINOMEscan scanMAX)
Experimental: as §1

PDGFRB = target: T27, PDGFRB (Homo sapiens, UniProt P09619)
T27 construct: purchased Eurofins Discovery (DiscoverX KINOMEscan scanMAX)
Experimental: as §1

PIK3CA(Q546K) = target: T28, PIK3CA(Q546K) (Homo sapiens, UniProt P42336, Q546K)
T28 construct: purchased Eurofins Discovery (DiscoverX KINOMEscan scanMAX)
Experimental: as §1

PRKCI = target: T29, PRKCI (Homo sapiens, UniProt P41743)
T29 construct: purchased Eurofins Discovery (DiscoverX KINOMEscan scanMAX)
Experimental: as §1

RET(M918T) = target: T30, RET(M918T) (Homo sapiens, UniProt P07949, M918T)
T30 construct: purchased Eurofins Discovery (DiscoverX KINOMEscan scanMAX)
Experimental: as §1

ROCK2 = target: T31, ROCK2 (Homo sapiens, UniProt O75116)
T31 construct: purchased Eurofins Discovery (DiscoverX KINOMEscan scanMAX)
Experimental: as §1

SGK = target: T32, SGK (Homo sapiens, UniProt O00141)
T32 construct: purchased Eurofins Discovery (DiscoverX KINOMEscan scanMAX)
Experimental: as §1

YANK2 = target: T33, YANK2 (Homo sapiens, UniProt Q9NY57)
T33 construct: purchased Eurofins Discovery (DiscoverX KINOMEscan scanMAX)
Experimental: as §1

Cc1cc(Nc2ccc(F)c(CC3(C(=O)N4CCC(F)(CN5CCN(c6ccc(N7CCC(=O)NC7=O)cn6)CC5)CC4)CCN(Cc4cccc(Cl)c4F)CC3)n2)n[nH]1 [SK5527]
remaining binding at 0.1 µM ([1]; 100 nM): 92%
remaining binding at 1 µM ([1]; 1000 nM): 68%
remaining binding at 0.1 µM ([2]; 100 nM): 24%
remaining binding at 1 µM ([2]; 1000 nM): 0%
remaining binding at 0.1 µM (AKT2; 100 nM): 98%
remaining binding at 1 µM (AKT2; 1000 nM): 98%
remaining binding at 0.1 µM (AMPK-alpha1; 100 nM): 100%
remaining binding at 1 µM (AMPK-alpha1; 1000 nM): 100%
remaining binding at 0.1 µM (CAMK2B; 100 nM): 100%
remaining binding at 1 µM (CAMK2B; 1000 nM): 100%
remaining binding at 0.1 µM (CAMK2G; 100 nM): 100%
remaining binding at 1 µM (CAMK2G; 1000 nM): 100%
remaining binding at 0.1 µM (CLK4; 100 nM): 85%
remaining binding at 1 µM (CLK4; 1000 nM): 100%
remaining binding at 0.1 µM (CSNK2A2; 100 nM): 100%
remaining binding at 1 µM (CSNK2A2; 1000 nM): 100%
remaining binding at 0.1 µM (DCAMKL1; 100 nM): 100%
remaining binding at 1 µM (DCAMKL1; 1000 nM): 88%
remaining binding at 0.1 µM (DDR1; 100 nM): 98%
remaining binding at 1 µM (DDR1; 1000 nM): 93%
remaining binding at 0.1 µM (DRAK2; 100 nM): 100%
remaining binding at 1 µM (DRAK2; 1000 nM): 100%
remaining binding at 0.1 µM ([3]; 100 nM): 81%
remaining binding at 1 µM ([3]; 1000 nM): 65%
remaining binding at 0.1 µM (ERBB3; 100 nM): 100%
remaining binding at 1 µM (ERBB3; 1000 nM): 100%
remaining binding at 0.1 µM (FER; 100 nM): 84%
remaining binding at 1 µM (FER; 1000 nM): 100%
remaining binding at 0.1 µM (FGFR3(G697C); 100 nM): 75%
remaining binding at 1 µM (FGFR3(G697C); 1000 nM): 67%
remaining binding at 0.1 µM (IKK-beta; 100 nM): 100%
remaining binding at 1 µM (IKK-beta; 1000 nM): 73%
remaining binding at 0.1 µM (IRAK3; 100 nM): 100%
remaining binding at 1 µM (IRAK3; 1000 nM): 100%
remaining binding at 0.1 µM (KIT(D816V); 100 nM): 93%
remaining binding at 1 µM (KIT(D816V); 1000 nM): 97%
remaining binding at 0.1 µM (KIT(L576P); 100 nM): 100%
remaining binding at 1 µM (KIT(L576P); 1000 nM): 100%
remaining binding at 0.1 µM (MLK1; 100 nM): 94%
remaining binding at 1 µM (MLK1; 1000 nM): 91%
remaining binding at 0.1 µM (MST3; 100 nM): 100%
remaining binding at 1 µM (MST3; 1000 nM): 100%
remaining binding at 0.1 µM (MTOR; 100 nM): 100%
remaining binding at 1 µM (MTOR; 1000 nM): 100%
remaining binding at 0.1 µM (NEK3; 100 nM): 88%
remaining binding at 1 µM (NEK3; 1000 nM): 61%
remaining binding at 0.1 µM (NEK4; 100 nM): 72%
remaining binding at 1 µM (NEK4; 1000 nM): 65%
remaining binding at 0.1 µM (NIK; 100 nM): 100%
remaining binding at 1 µM (NIK; 1000 nM): 88%
remaining binding at 0.1 µM (NLK; 100 nM): 94%
remaining binding at 1 µM (NLK; 1000 nM): 82%
remaining binding at 0.1 µM (PDGFRB; 100 nM): 100%
remaining binding at 1 µM (PDGFRB; 1000 nM): 63%
remaining binding at 0.1 µM (PIK3CA(Q546K); 100 nM): 81%
remaining binding at 1 µM (PIK3CA(Q546K); 1000 nM): 78%
remaining binding at 0.1 µM (PRKCI; 100 nM): 92%
remaining binding at 1 µM (PRKCI; 1000 nM): 76%
remaining binding at 0.1 µM (RET(M918T); 100 nM): 95%
remaining binding at 1 µM (RET(M918T); 1000 nM): 38%
remaining binding at 0.1 µM (ROCK2; 100 nM): 100%
remaining binding at 1 µM (ROCK2; 1000 nM): 45%
remaining binding at 0.1 µM (SGK; 100 nM): 93%
remaining binding at 1 µM (SGK; 1000 nM): 68%
remaining binding at 0.1 µM (YANK2; 100 nM): 100%
remaining binding at 1 µM (YANK2; 1000 nM): 100%
